For one series, the system named is Rattus norvegicus. As to the kind of experiment: Unbound Cmax in CD rat systemic circulation at 10 mg/kg, po administered via gavage. Format: ADME, organism-based. Particulars: in vivo.
Series [1] can be described thus: Aqueous solubility of the compound in FASSIF. Format: physicochemical.
Series [2] deals with T1, Extracellular calcium-sensing receptor (Homo sapiens) (UniProt P41180).
T1 sequence (whole entry): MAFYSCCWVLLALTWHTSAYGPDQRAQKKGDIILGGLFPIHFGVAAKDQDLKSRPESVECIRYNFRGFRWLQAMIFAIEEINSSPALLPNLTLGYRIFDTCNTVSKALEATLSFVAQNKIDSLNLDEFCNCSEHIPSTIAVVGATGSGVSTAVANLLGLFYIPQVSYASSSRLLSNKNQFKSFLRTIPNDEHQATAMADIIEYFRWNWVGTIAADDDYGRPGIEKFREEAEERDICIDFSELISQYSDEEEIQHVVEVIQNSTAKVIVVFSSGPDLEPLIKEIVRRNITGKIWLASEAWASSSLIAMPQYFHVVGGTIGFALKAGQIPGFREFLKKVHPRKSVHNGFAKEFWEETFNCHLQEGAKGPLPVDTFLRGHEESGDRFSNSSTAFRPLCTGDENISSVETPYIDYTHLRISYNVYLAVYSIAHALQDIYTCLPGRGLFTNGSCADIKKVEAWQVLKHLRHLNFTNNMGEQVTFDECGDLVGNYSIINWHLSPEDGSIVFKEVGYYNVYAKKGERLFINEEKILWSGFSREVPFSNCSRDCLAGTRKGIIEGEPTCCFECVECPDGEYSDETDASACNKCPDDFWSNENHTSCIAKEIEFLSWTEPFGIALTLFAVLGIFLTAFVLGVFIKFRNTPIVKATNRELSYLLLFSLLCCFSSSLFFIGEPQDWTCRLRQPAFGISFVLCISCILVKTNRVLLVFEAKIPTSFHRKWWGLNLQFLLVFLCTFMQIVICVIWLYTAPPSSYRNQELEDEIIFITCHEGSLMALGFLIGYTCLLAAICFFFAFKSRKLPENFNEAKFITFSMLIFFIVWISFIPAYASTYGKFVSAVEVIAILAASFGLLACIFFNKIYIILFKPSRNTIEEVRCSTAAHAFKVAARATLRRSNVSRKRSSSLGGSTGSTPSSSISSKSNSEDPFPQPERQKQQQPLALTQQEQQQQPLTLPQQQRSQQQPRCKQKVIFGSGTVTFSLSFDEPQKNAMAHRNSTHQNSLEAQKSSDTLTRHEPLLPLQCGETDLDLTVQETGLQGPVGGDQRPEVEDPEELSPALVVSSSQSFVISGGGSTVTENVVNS
Nature of the series: (§1) Agonist activity at human CaSR expressed in HEK293 cells assessed as increase in intracellular calcium mobilization by fluo-4AM dye based FLIPR assay. Format: functional, cell-based.

The target of series [3] is T2, Extracellular calcium-sensing receptor (Homo sapiens, UniProt P41180).
T2 sequence (P41180 whole entry): T1 sequence (whole entry)
Described as §1. In kind it is functional, cell-based. Conditions: read-out: EC50.

A short description of series [4]: Cmax in CD rat portal vein at 30 mg/kg, po administered via gavage. Format: ADME, organism-based. Details: dose 30 mg/kg, route oral.
Series [5] can be described thus: Aqueous solubility of the compound in FESSIF. Format: physicochemical.

Some results are limits rather than exact numbers.

As usually defined, the solubility is the concentration that dissolves in the medium under given conditions. Low values mean little dissolved substance, high ones much dissolved substance. What is called EC50 is the midpoint of the concentration-response curve. The term Cmax denotes the highest concentration seen after dosing.

In the series on Rattus norvegicus, `C[C@@H](N[C@H]1CCN(c2ccc(C(=O)NCCCN3CCC(C(=O)O)CC3)cc2)C1)c1cccc2ccccc12` returned a fCmax of 3 ng/mL. Further, the solubility in series [1] and in series [5] was greater than 1000 µg/mL each time. In addition, the %max in series [2] was 84 to 93%. Also, the EC50 in series [3] is 50 nM. In addition, in series [4], the Cmax stood at 57 ng/mL.

Values taken from ChEMBL document CHEMBL4043225, “Identification of potent, nonabsorbable agonists of the calcium-sensing receptor for GI-specific administration” (Bioorg Med Chem Lett, 2017).
